Measured values reported in PubChem BioAssay (NCI).
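GI50 marks 50% less growth. TGI: concentration producing complete growth inhibition.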

Columns and labels:
Assay in all cases: NCI anticancer screen, dose series, 384-well format
HL-60(TB) leukemia = system: HL-60(TB) leukemia
SK-MEL-5 melanoma = system: SK-MEL-5 melanoma
SNB-75 CNS = system: SNB-75 CNS
A549 NSCLC = system: A549 NSCLC
HT29 colon = system: HT29 colon
RPMI-8226 leukemia = system: RPMI-8226 leukemia
CAKI-1 renal = system: CAKI-1 renal
SF-539 CNS = system: SF-539 CNS
MOLT-4 leukemia = system: MOLT-4 leukemia
T-47D breast = system: T-47D breast
MDA-MB-468 breast = system: MDA-MB-468 breast
NCI/ADR-RES ovarian = system: NCI/ADR-RES ovarian
SR leukemia = system: SR leukemia
RXF 393 renal = system: RXF 393 renal
M14 melanoma = system: M14 melanoma
MALME-3M melanoma = system: MALME-3M melanoma
ACHN renal = system: ACHN renal
NCI-H322M lung = system: NCI-H322M lung
HS 578T breast = system: HS 578T breast
BT-549 breast = system: BT-549 breast
DU-145 prostate = system: DU-145 prostate
SNB-19 CNS = system: SNB-19 CNS
NCI-H522 lung = system: NCI-H522 lung
HOP-62 NSCLC = system: HOP-62 NSCLC
NCI-H23 lung = system: NCI-H23 lung
UACC-257 melanoma = system: UACC-257 melanoma
OVCAR-4 ovarian = system: OVCAR-4 ovarian
HCT-116 colon = system: HCT-116 colon
NCI-H226 lung = system: NCI-H226 lung
SF-268 CNS = system: SF-268 CNS
SK-OV-3 ovarian = system: SK-OV-3 ovarian
OVCAR-8 ovarian = system: OVCAR-8 ovarian
TK-10 renal = system: TK-10 renal
HCC-2998 colon = system: HCC-2998 colon
PC-3 prostate = system: PC-3 prostate
MDA-MB-435 melanoma = system: MDA-MB-435 melanoma
HOP-92 NSCLC = system: HOP-92 NSCLC
OVCAR-3 ovarian = system: OVCAR-3 ovarian
KM12 colon = system: KM12 colon
NCI-H460 NSCLC = system: NCI-H460 NSCLC
UACC-62 melanoma = system: UACC-62 melanoma
U251 glioblastoma = system: U251 glioblastoma
HCT-15 colon = system: HCT-15 colon
COLO 205 colon = system: COLO 205 colon
IGROV1 ovarian = system: IGROV1 ovarian
LOX IMVI melanoma = system: LOX IMVI melanoma
A498 renal = system: A498 renal
MCF7 breast = system: MCF7 breast
EKVX NSCLC = system: EKVX NSCLC
OVCAR-5 ovarian = system: OVCAR-5 ovarian
MDA-MB-231 breast = system: MDA-MB-231 breast
SF-295 CNS = system: SF-295 CNS
SN12C renal = system: SN12C renal
SK-MEL-28 melanoma = system: SK-MEL-28 melanoma

Which results are given for `NC1(C(=O)N[C@@H](CCO)c2ccc(Cl)cc2)CCN(c2ncnc3[nH]ccc23)CC1`?
GI50 (HL-60(TB) leukemia): 12.7 µM; TGI (HL-60(TB) leukemia): 25.9 µM; GI50 (SK-MEL-5 melanoma): 10 µM; TGI (SK-MEL-5 melanoma): 29.6 µM; GI50 (SNB-75 CNS): 0.366 µM; TGI (SNB-75 CNS): 35.8 µM; GI50 (A549 NSCLC): 19.7 µM; TGI (A549 NSCLC): > 100 µM; GI50 (HT29 colon): 4.22 µM; TGI (HT29 colon): > 100 µM; GI50 (RPMI-8226 leukemia): 21.5 µM; TGI (RPMI-8226 leukemia): 84 µM; GI50 (CAKI-1 renal): 10.9 µM; TGI (CAKI-1 renal): > 100 µM; GI50 (SF-539 CNS): 0.41 µM; TGI (SF-539 CNS): 57.7 µM; GI50 (MOLT-4 leukemia): 0.453 µM; TGI (MOLT-4 leukemia): 1.88 µM; GI50 (T-47D breast): 0.423 µM; TGI (T-47D breast): > 100 µM; GI50 (MDA-MB-468 breast): 0.279 µM; TGI (MDA-MB-468 breast): 14.7 µM; GI50 (NCI/ADR-RES ovarian): > 100 µM; TGI (NCI/ADR-RES ovarian): > 100 µM; GI50 (SR leukemia): 1.07 µM; TGI (SR leukemia): 4.49 µM; GI50 (RXF 393 renal): 1.2 µM; TGI (RXF 393 renal): 44 µM; GI50 (M14 melanoma): 6.69 µM; TGI (M14 melanoma): 27.6 µM; GI50 (MALME-3M melanoma): 2.43 µM; TGI (MALME-3M melanoma): 15.3 µM; GI50 (ACHN renal): 13.1 µM; TGI (ACHN renal): > 100 µM; GI50 (NCI-H322M lung): 16.2 µM; TGI (NCI-H322M lung): > 100 µM; GI50 (HS 578T breast): 0.6 µM; TGI (HS 578T breast): 47 µM; GI50 (BT-549 breast): 0.863 µM; TGI (BT-549 breast): 18.9 µM; GI50 (DU-145 prostate): 22.6 µM; TGI (DU-145 prostate): > 100 µM; GI50 (SNB-19 CNS): 18.8 µM; TGI (SNB-19 CNS): > 100 µM; GI50 (NCI-H522 lung): 9.74 µM; TGI (NCI-H522 lung): 24.2 µM; GI50 (HOP-62 NSCLC): 21.1 µM; TGI (HOP-62 NSCLC): > 100 µM; GI50 (NCI-H23 lung): 15 µM; TGI (NCI-H23 lung): 65.8 µM; GI50 (UACC-257 melanoma): 4.55 µM; TGI (UACC-257 melanoma): 25.7 µM; GI50 (OVCAR-4 ovarian): 88.3 µM; TGI (OVCAR-4 ovarian): > 100 µM; GI50 (HCT-116 colon): 10.6 µM; TGI (HCT-116 colon): > 100 µM; GI50 (NCI-H226 lung): 13 µM; TGI (NCI-H226 lung): 78.6 µM; GI50 (SF-268 CNS): 23.8 µM; TGI (SF-268 CNS): > 100 µM; GI50 (SK-OV-3 ovarian): 1.02 µM; TGI (SK-OV-3 ovarian): > 100 µM; GI50 (OVCAR-8 ovarian): 26.4 µM; TGI (OVCAR-8 ovarian): > 100 µM; GI50 (TK-10 renal): 3.3 µM; TGI (TK-10 renal): > 100 µM; GI50 (HCC-2998 colon): 2.61 µM; TGI (HCC-2998 colon): > 100 µM; GI50 (PC-3 prostate): 0.629 µM; TGI (PC-3 prostate): > 100 µM; GI50 (MDA-MB-435 melanoma): 6.05 µM; TGI (MDA-MB-435 melanoma): 87.8 µM; GI50 (HOP-92 NSCLC): > 100 µM; TGI (HOP-92 NSCLC): > 100 µM; GI50 (OVCAR-3 ovarian): 23.3 µM; TGI (OVCAR-3 ovarian): > 100 µM; GI50 (KM12 colon): 1.08 µM; TGI (KM12 colon): > 100 µM; GI50 (NCI-H460 NSCLC): 0.631 µM; TGI (NCI-H460 NSCLC): 25.2 µM; GI50 (UACC-62 melanoma): 2.2 µM; TGI (UACC-62 melanoma): 18.6 µM; GI50 (U251 glioblastoma): 5.38 µM; TGI (U251 glioblastoma): > 100 µM; GI50 (HCT-15 colon): 14.7 µM; TGI (HCT-15 colon): > 100 µM; GI50 (COLO 205 colon): 5.9 µM; TGI (COLO 205 colon): 73.6 µM; GI50 (IGROV1 ovarian): 0.121 µM; TGI (IGROV1 ovarian): 2.09 µM; GI50 (LOX IMVI melanoma): 22.4 µM; TGI (LOX IMVI melanoma): > 100 µM; GI50 (A498 renal): 0.394 µM; TGI (A498 renal): 26.7 µM; GI50 (MCF7 breast): 0.437 µM; TGI (MCF7 breast): > 100 µM; GI50 (EKVX NSCLC): 5.28 µM; TGI (EKVX NSCLC): > 100 µM; GI50 (OVCAR-5 ovarian): 21.9 µM; TGI (OVCAR-5 ovarian): 96.1 µM; GI50 (MDA-MB-231 breast): 84.9 µM; TGI (MDA-MB-231 breast): > 100 µM; GI50 (SF-295 CNS): 1.14 µM; TGI (SF-295 CNS): 17 µM; GI50 (SN12C renal): 0.815 µM; TGI (SN12C renal): 25.5 µM; GI50 (SK-MEL-28 melanoma): 4.49 µM; TGI (SK-MEL-28 melanoma): > 100 µM
